From patent US10238689B2, “Methods for combating bacterial infections by killing persister cells with mitomycin C and/or cisplatin” (THE PENN STATE RESEARCH FOUNDATION, priority 2015, dated 2019)
Entries after “also recorded” stand apart in the source; their conditions may differ.

Assays:
[1] = system: pDNA of E. coli K-12 BW25113/pCA24N; experiment: Denaturing agarose gel electrophoresis of pDNA from treated cells; type: cell-based, Escherichia coli; conditions: non-persisters and rifampicin-induced persisters, MMC 100 μg/mL 1 h
Experimental: Overnight cultures (16 h) of E. coli K-12 BW25113/pCA24N grown in LB were diluted 1:1000 in buffered LB and grown to the desired turbidity. For exponential phase cells (i.e., non-persisters), cultures were grown to a turbidity of 2.0 at 600 nm. For rifampicin-induced persisters, cultures were grown to a turbidity of 0.8 at 600 nm, exposed to rifampicin (100 μg/mL) for 30 min, centrifuged, and resuspended in fresh medium to remove the rifampicin. Non-persister and rifampicin-induced persister cultures were treated with MMC (100 μg/mL) for 1 h. pDNA was extracted from samples taken before and after MMC treatment and linearized by HindIII digestion. As a positive control, 2 μg of linearized pDNA from non-persisters was crosslinked in vitro with 500 μg/mL (1.5 mM) MMC in 0.2 mM EDTA, 50 mM NaCl, and 5 mM Tris (pH=7.6) with Na2S2O4 added six times at 10 min intervals to reach a final concentration of 2.25 mM (1.5× molarity of MMC). The in vitro crosslinking reaction was performed anaerobically on ice and the reaction was stopped by exposure to air. Linearized pDNA was visualized after electrophoresis through a TAE agarose gel and an alkaline denaturing agarose gel. Experiment was performed with at least two independent cultures.

E. coli K-12 = type: cell-based, Escherichia coli
Experimental: Persister cell killing and eradication assays (planktonic cells). For the time course experiment, late stationary phase cells of E. coli K-12 (wild-type and isogenic mutants) were prepared by growing cells overnight (16 h) in LB medium buffered with 100 mM KPO4 at pH 7.0 (buffered LB). A 1 mL culture was used for a drop (10 μL×3) assay to check cell viability at 0 h (i.e., before antibiotic treatment). […] At 1 h intervals, 1 mL culture was centrifuged at 10,000 rpm for 3 min, the supernatant was discarded, the cells were resuspended in 1 mL of normal saline (0.85% NaCl), and the cell suspension was serially diluted for a drop assay to check cell viability.
To test for eradication, the wild-type E. coli K-12 cells were treated with cisplatin for 12 h, a 1 mL sample was centrifuged, the cell pellet was resuspended in 150 μL of normal saline, and the cells were spread on LB agar to check cell viability. Another 1 mL culture was diluted 1:10 with fresh buffered LB and the cells were incubated to allow any remaining cells to replicate. After 12 h, 18 h, and 24 h, 1 mL samples were centrifuged, resuspended in 150 μL of normal saline and spread on LB agar plates to check cell viability. At least two independent cultures were used.

Compound	pDNA crosslinking (migration as double-stranded DNA under denaturing conditions) [1]	eradication of persister cells (colonies from 1 mL of culture) (E. coli K-12; 5×MIC of cisplatin for 12 h)	killing of katE or katG catalase mutants compared to the wild-type strain (E. coli K-12; 8 h treatment with 5×MIC of cisplatin)	time course dependent killing (E. coli K-12; late stationary phase (16 h of growth), buffered LB, cisplatin 500 μg/mL (5×MIC), ciprofloxacin 5 μg/mL (100×MIC), 8 h)	regrowth when cisplatin is withdrawn (E. coli K-12; treated culture inoculated into fresh medium, 12 h, 18 h, and 24 h)
CO[C@@]12[C@H](COC(N)=O)C3=C(C(=O)C(C)=C(N)C3=O)N1C[C@@H]1N[C@@H]12 [MMC, mitomycin C]	crosslinks DNA in E. coli K-12 persister cells; also recorded: high percentage of crosslinking	–	–	–	–
N.N.[Cl][Pt][Cl] [cisplatin, cis-diamminodichloroplatinum(II)]	–	completely eradicated	did not find any significant differences in killing	nearly eradicated; also recorded: eradicates late stationary-phase E. coli K-12 cells	no increase in turbidity or colonies
